Several values for one entry are separate records, joined by “and”; a condition that tells them apart may be missing. Equal values may be shown once.
Columns and labels:
[1] = target: T1, HLA-A2 (Homo sapiens, UniProt P04439, D140Y/D185E/D98H/E176V/E277Q/G131W/G231S/I119V/I121R/I166T/I218V/L300P/L318F/N151K/N90K/P208A/P217A/Q86G/Q94H/R138H/R169H/T345S); test: Peptide-binding assay: stabilization of HLA-A2 on the surface of T2 cells, compared to PR1
T1 construct: measure HLA-A2.1 surface expression on the A2+ T2 cell line coated with the peptide; host or cells: T2 cells
From the text: (§1) Nonameric peptides derived from cyclin E1 and cyclin E2 and predicted to bind to the HLA-A2 allele have similar amino acid sequences, differing only at position 7. Thus, the binding of CCNE1144-152 (cyclin E1 derived) and CCNE2144-152 (cyclin E2 derived) was compared to that of PR1 by a peptide-binding assay. The ability of CCNE1144-152 and CCNE2144-152 to stabilize HLA-A2 on the surface of T2 cells was almost the same as that of PR1 (FI CCNE1144-152/FI PR1=1.008, FI CCNE2144-152/FI PR1=1.189). […] In 3 of 7 donors, CCNE1144-152-stimulated CTL lines killed both CCNE1144-152 and CCNE 2144-152-pulsed T2 cells but not non-peptide-pulsed T2 cells and irrelevant peptide-pulsed T2 cells. In 4 of 7 same donors, CCNE2144-152-stimulated CTL lines killed both CCNE2144-152 and CCNE1144-152-pulsed T2 cells but not non-peptide-pulsed T2 cells and irrelevant peptide-pulsed T2 cells.

[2] = test system: peptide-pulsed T2 cells; test: Elicitation of cyclin E peptide-specific CTL with peptide-pulsed T2 cells; format: cell-based, human; details: PBMCs from 7 HLA-A2 positive normal donors
From the text: as §1

[3] = target: HLA-A2.1 (Homo sapiens, UniProt P04439, D140Y/D185E/D98H/E176V/E277Q/G131W/G231S/I119V/I121R/I166T/I218V/L300P/L318F/N151K/N90K/P208A/P217A/Q86G/Q94H/R138H/R169H/T345S); test: HLA-A2.1 surface expression on peptide-coated T2 cells by indirect flow cytometry (BB7.2); format: binding; details: for surface HLA-A2.1 expression on peptide-pulsed T2 cells: compared with T2 cells with no added peptide / positive control influenza peptide; for Median Channel of Fluorescence of HLA-A2 Expression on T2: peptide-coated T2 cells, background HLA-A2 22
[4] = Cytotoxicity of peptide-elicited CTL lines against fresh myeloid leukemia marrow and normal marrow; format: cell-based, human
From the text: (§2) PR1 specific CTL preferentially lyse human myeloid leukemia cells. It was next determined whether the PR1-specific CTL line was capable of lysing allogeneic human myeloid leukemia cells from HLA-A2.1 positive individuals. As controls, two cell lines expressing low levels of Pr3 were used: HLA-A2.1 transfected K562 cells and U937 cell line which lack HLA-A2.1 and would therefore be incapable of presenting peptides in an HLA-A2.1-restricted manner. Cryopreserved bone marrow cells from patients P1-P4, and marrow cells from a healthy normal volunteer (D2, a bone marrow donor for an allogeneic bone marrow transplant performed on patient P3) were thawed and used as targets for the PR1-specific CTL line.
(§3) It was next determined whether the MY2 and MY4-specific CTL lines were capable of lysing allogeneic human myeloid leukemia cells from HLA-A2.1 positive individuals. The targets were BM cells from pre-transplant HLA-A2.1-positive AML patients. As controls, BM cells from HLA-A2.1-negative AML patients, BM from HLA-A2.1-positive healthy donors and two cell lines expressing low levels of MPO were used: HLA-A2.1 transfected K562 cells and the U937 cell line which lacks HLA-A2.1 and would therefore be incapable of presenting peptides in an HLA-A2.1-restricted manner.

[5] = test system: human myeloid leukemia cells; test: as above; format: cell-based
From the text: as §2, §3

[6] = test system: HMy2.CIR-A2 cells transfected with Pr3; test: Lysis of Pr3-transfected B cells by PR1 specific CTL; format: cell-based, human; details: E:T 25:1
Procedure: Expression of proteinase 3 following transfection into and HMy2.CIR and HMy2.CIR-A2 cells. […] The parental HMy2.CIR cell line, which has lost expression of HLA-A and -B, and the HLA-A2.1-transfected HMy2.CIR cells (named HMy2.CIR-A2), were both transfected with Pr3 as described below.
Ten million HMy2.CIR (ATCC, Rockville, Md.), or 10 million HMy2.CIR-A2 cells were each washed in phosphate buffered saline (PBS) and re-suspended in 0.8 mL of ice-cold PBS and put into an electroporation cuvette with 20 μg of circular plasmid DNA. The mixture was exposed to an electric pulse of 320 volts at 960 microF and incubated on ice for 10 min. Cells were then added to 10 mL of pre-warmed CM. The following day, the CM was replaced. On day 2, cells were grown under selection conditions using 200 μg/mL Zeocin. Following one week of selection, the cells were subcloned by limiting dilution under Zeocin selection, and 6 clones were isolated.
HMy.2.CIR-A2 cells transfected with Pr3 are susceptible to lysis by PR1 specific CTL. It was next determined whether the transfected HMy2.CIR-A2 cells could be lysed by PR1 specific CTL. The PR1 specific CTL were elicited in the manner previously described, and after 22 days in culture were combined at a 25:1 E:T ratio with HMy2.CIR-A2 transfected either with the Pr3-containing vector pRTZ.2, or the empty vector containing the reporter gene, CAT. […]

[7] = test system: P3-HMy.CIR-A2 target cells; test: Proliferation (BrDU incorporation) of PR1-specific CTL lines with P3-transfected B cells; format: cell-based, human; details: CTL lines from two healthy donors
From the text: (§4) The leukemia-associated antigen PR1 is derived from both proteinase 3 and neutrophil elastase proteins. The inventors have shown that killing of leukemia cells by PR1-specific CTL correlates with P3 overexpression. However, the PR1 sequence is also contained within neutrophil elastase (NE), which is also aberrantly expressed in leukemia cells. To determine whether PR1 is processed and presented from either protein, P3- and NE-transfected B cells were used as target cells in a proliferation assay with PR1-specific T cells. Full-length P3 and NE cDNA was cloned from the promyelocytic HL-60 cell line based on published sequences. The sequences were subcloned into an EGFP-containing vector (pCMS-EGFP) with a CMV promoter to drive constitutive expression. The B cell line, HMy-CIR, previously stably transfected with the HLA-A*0201 gene, was transfected with P3-pCMS-EGFP and NE-pCMS-EGFP by electroporation for 24 hr. GFP-expressing cells (P3-HMy.CIR-A2 and NE-HMy.CIR-A2, respectively) were selected by FACSorting and high transfection levels were confirmed by fluorescence microscopy. […] By contrast, NE transcript numbers from a transfected clone were 7-fold less than in HL-60 cells. Western blotting confirmed protein expression in the NE-HMy.CIR-A2-transfected cells, although expression was similarly less than in HL-60 cells. […]

[8] = test system: NE-HMy.CIR-A2; test: Proliferation (BrDU incorporation) of PR1-specific CTL lines with NE-transfected B cells; format: cell-based, human; details: CTL lines from two healthy donors
From the text: as §4

[9] = test system: PR1-CTL from a healthy donor; test: Annexin V apoptosis of PR1-CTL challenged with peptide-pulsed T2 cells; format: cell-based, human; details: for apoptosis of high avidity PR1-CTL: T2 cells pulsed with 20 μM peptide, Annexin V 16 to 18 hr
From the text: High PR1 concentration and proteinase 3-overexpressing CML cells induce apoptosis of high avidity PR1-specific CTL. […] All high avidity PR1-CTL exposed to high dose PR1 were dead after 36 to 48 hr of co-culture.

[10] = test system: patients with myeloid leukemia; test: Phase I/II PR1 peptide vaccine study; format: in vivo, human
Procedure: PR1 peptide is injected subcutaneously in incomplete Freund's adjuvant every 3 weeks for 3 injections to induce a PR1 specific host response against the myeloid leukemia. […] Vaccination at 3 dose levels of peptide with a fixed amount of IFA will be conducted, and stopping criteria will be guided by established toxicity criteria.
HLA-A2^+ patients with CML (interferon-resistant or relapsed after BMT), AML (smoldering relapse or ≧2nd CR) or MDS (RAEB or RAEBt) with no detectable antibodies to proteinase 3 (no detectable cANCA) were eligible. Patients that relapsed after BMT or those ineligible for BMT were also eligible for study. Pregnant patients, HIV+ patients, and those with known vasculitis were excluded. Patients were required to have immunosuppression (i.e. cyclosporine, steroids) discontinued 4 weeks prior to study entry.
Secondarily, clinical responses were assessed by standard criteria with bone marrow biopsy, cytogenetic studies (standard chromosome banding) and molecular studies (PCR for bcr-abl or other known abnormalities such as t(15;17), inv16, etc.) 3 weeks after the last vaccination. Patients were seen and evaluated in clinic every 3 weeks during the study period. Both vialed PR1 peptide (NSC698102) and the adjuvant (Montanide ISA-51, NSC675756) were used in this study. […]

[11] = test system: human myeloid leukemia cells; test: Cytotoxicity of peptide-elicited CTL lines against fresh myeloid leukemia marrow and normal marrow; format: cell-based; remark: listed apart in the source
[12] = test system: T2 cells; test: Peptide-specific cytotoxicity of peptide-elicited CTL lines against peptide-loaded T2 cells; details: T2 cells loaded with the same peptide; 4-hr assay, varying E:T
Procedure: CTL cytotoxicity assay. A semiautomated minicytotoxicity assay was used to determine specific lysis as described previously (Molldrem, 2000; Molldrem et al., 1996). Briefly, effector cells were prepared in doubling dilutions from 6×10^3 to 25×10^3 cells/well and were plated in 40 μl, 60-well Terasaki trays (Robbins Scientific, Sunnyvale, Calif., USA) with six replicates per dilution. Target cells (T2 cells, marrow-derived leukemic cells, or BM from a healthy donor) at a concentration of 2×10^6 cells/ml were stained with 10 μg/ml of Calcein-AM (Molecular Probes Inc.) for 60 min at 37° C. After washing three times in CM plus 10% AB, target cells were resuspended at 10^5 cells/ml, and 10^3 target cells in 10 μl medium were added to each well containing effector cells. Wells with target cells alone and medium alone were used for maximum (max) and minimum (min.) fluorescence emission, respectively. After 4 hr incubation at 37° C. in 5% CO2, 5 μl FluoroQuench (One Lambda Inc., Canoga Park, Calif., USA) was added to each well, and the trays were centrifuged for 1 min at 60 g before measurement of fluorescence using an automated CytoFluor II plate reader (PerSeptive Biosystems, Framingham, Mass., USA). The percentage of lysis was calculated as follows: % lysis={1−[(mean experimental mission−mean min.)/(mean max−mean min.)]}×100%.
Induction of Primary CTL responses to peptides. These peptides were next used to stimulate T cells specific for peptide-coated targets. PBMC from a normal healthy donor heterozygous for HL-A2.1 were stimulated with peptide-pulsed T2 cells. […] Briefly, T2 cells (which co-express the costimulatory molecule B7.1) were washed 3 times in serum-free RPMI culture media supplemented with penicillin/streptomycin and glutamine (CM) and incubated with peptide at 20 μg/mL for 2 hr in CM. The peptide loaded T2 cells were then irradiated with 7500 cGy, washed once, and suspended with freshly isolated PBMC at a 1:1 ratio in CM supplemented with 10% human serum (HS) (Sigma, St. Louis, Mo.). After 7 days in culture, a second stimulation was performed and the following day, 60 IU/mL of recombinant human interleukin-2 (rhIL2) (Biosource International, Camarillo, Calif.) was added. After 14 days in culture a third stimulation was performed, followed on day 15 by addition of rhIL-2. A fourth stimulation was performed on day 21 followed on day 22 by the addition of rhIL2. After a total of 27 days in culture, the peptide-stimulated T cells were harvested and tested for peptide-specific cytotoxicity toward Calcein AM-labeled T2 cells, leukemia cell lines, and fresh human leukemia cells.
The five MPO peptides discussed above, were used to stimulate T cells specific for peptide-coated targets. […]

[13] = test system: AML colony-forming units (CFU-GM); test: Colony inhibition assay with MY4 peptide-pulsed CTL; format: cell-based, human
From the text: In contrast there was no inhibition of CFUGM from normal marrow, D1 and D2, the corresponding HLA identical marrow donors for P1 and P2.

[14] = test system: HLA-A2 transfected K562 leukemic cell line; test: Killing of leukemic cell line by CCNE1 peptide-stimulated CTL lines; format: cell-based, human
From the text: Thus, each peptide-specific CTLs can recognize both peptides with HLA-A2, but the immunogenicity of each peptide is different between individuals. Moreover, one of 4 CCNE1144-152-stimulated CTL lines which killed CCNE1144-152-pulsed T2 cell killed HLA-A2 transfected K562 leukemic cell line which is over-expressing cyclin E1 protein, but not non-transfected K562 leukemic cell line. Thus, CCNE1144-152-specific CTL can distinguish leukemic cell lines from normal PBMCs. From the data, it was concluded that cyclin E1/E2 derived peptides are potential tumor-antigens, because 1) cyclin E1/E2 are highly over-expressed in hematological malignancy, 2) cyclin E1/E2 peptides can sufficiently bind to HLA-A2 to stimulate CTL and 3) CCLE1144-152 specific CTL preferentially kills leukemic cell lines HLA-A2 restrictively.

In the case of “CCNE2144-152: nonameric peptide derived from cyclin E2, predicted to bind to the HLA-A2 allele (ILLDWLLEV)”, the “FI peptide/FI PR1 (HLA-A2 stabilization on T2 cells)” value [1] is reported as 1.189 and the “donors in whom peptide-stimulated CTL lines killed peptide-pulsed T2 cells” value [2] is reported as 4 of 7.

In the case of VLQELNVTV [PR1], the “surface HLA-A2.1 expression on peptide-pulsed T2 cells” value (“surface HLA-A2.1 expression” below) [3] is reported as “increased surface HLA-A2.1 expression”, the “Median Channel of Fluorescence of HLA-A2 Expression on T2” value (“Median Channel” for short) [3] is reported as 294 and the “lysis by PR1-specific CTL line” value ([4]; marrow cells from normal healthy donor (D2)) is reported as less than 20%. For the same substance, the “specific lysis by CTL specific for PR-1” value ([5]; marrow cells from a patient with CML in blast crisis, E:T 25:1) was 73%, the “specific lysis by PR1-specific CTL line” value ([5]; marrow cells of P1 (CML in chronic phase), E:T 6:1) was 53% and the “specific lysis by PR1 specific CTL” value ([6]; Pr3-transfected cells (clone 1.4)) was 36%. The “lysis of negative control targets by PR1 specific CTL” value ([6]; normal marrow cells, HL-60, HMy2.CIR with empty vector (CAT), non-transfected parent line) was “only background lysis”, the “stimulation indices (SI) of PR1-specific CTL lines” value [7] was 1.3 and 2.4 and the “stimulation indices (SI) of PR1-specific CTL lines” value [8] was 1.5 and 2.1. The “apoptosis of high avidity PR1-CTL” value [9] was “underwent apoptosis”, the “apoptosis of low avidity PR1-CTL” value ([9]; high or low concentrations of PR1) was “did not undergo apoptosis” and the “PR1-specific CTL immunity elicited (by tetramer staining)” value ([10]; 0.25, 0.5 or 1.0 mg s.c. every 3 weeks for 3 injections) was 6 of 9. The complete remissions ([10]; 9 patients (1 AML and 1 CML patient)) was 2 patients, the “lysis of CML #3 BM cells by CTL elicited with 0.2 μM PR1” value ([11]; CTL from patient CML #1, E:T 20:1) was 24%±5% and the “lysis of CML #3 BM cells by CTL elicited with 0.2 μM PR1” value ([11]; CTL from patient CML #2, E:T 20:1) was 33%±6%. For the same substance, the “fold greater lysis of CML BM cells, CTL elicited with 0.2 μM vs 20 μM PR1” value ([11]; per cell basis, 4-hr cytotoxicity assay) was roughly 2 fold and the “peptide-specific lysis by CTL line generated against the peptide” value (“peptide-specific lysis” for short) [12] was “high specific lysis”.

In the case of KLNDILLIQL [PR71], the “surface HLA-A2.1 expression” value [3] is reported as “strong peptide binding”.

With KLLLALAGL [MY2] the “specific lysis of HLA-A2+ normal BMC by peptide-specific CTL” value [4] was 45%, the “lysis by MY2-specific CTL lines” value ([4]; marrow cells from HLA-A2.1-positive normal healthy donor, E:T 20:1) was 43% and the “lysis of HLA-A2.1-positive AML marrow cells by peptide-specific CTL” value [5] was “readily lysed”. The “peptide-specific lysis” value [12] was “high specific lysis”.

With RLFEQVMRI [MY4] the “specific lysis of HLA-A2+ normal BMC by peptide-specific CTL” value [4] was “no lysis of normal BMC”, the “lysis of HLA-A2.1-positive AML marrow cells by peptide-specific CTL” value [5] was “killed AML cells, but not normal cells” and the “inhibition of CFU-GM by MY4 peptide-pulsed CTL” value ([13]; normal marrow, D1 and D2 (HLA identical donors)) was “no inhibition”. The “inhibition of CFU-GM by MY4 peptide-pulsed CTL (CTL1)” value ([13]; patient P1 (M2-AML)) was 63%, the “inhibition of CFU-GM by MY4 peptide-pulsed CTL (CTL1)” value ([13]; patient P2 (M4-AML)) was 34% and the “peptide-specific lysis” value [12] was “tested similarly”.

For RLFPDFFTRV [PR2], the “surface HLA-A2.1 expression” value [3] was “increased surface HLA-A2.1 expression”, the “Median Channel” value [3] was 273 and the “peptide-specific lysis” value [12] was “did not demonstrate any significant cytotoxicity”.

With KLNDVLLIQL [PR7V] the “surface HLA-A2.1 expression” value [3] was “strong peptide binding”.

With “Influenza nucleoprotein: control influenza peptide, Influenza B nucleoprotein (aa 85-94), known high binding affinity to HLA-A2.1 (KLGEFYNQMM) [reference compound]” the “Median Channel” value [3] was 194 and the “apoptosis of high avidity PR1-CTL” value [9] was “no apoptosis was observed”.

For “CCNE1144-152: nonameric peptide derived from cyclin E1, predicted to bind to the HLA-A2 allele”, the “FI peptide/FI PR1 (HLA-A2 stabilization on T2 cells)” value [1] was 1.008, the “donors in whom peptide-stimulated CTL lines killed peptide-pulsed T2 cells” value [2] was 3 of 7 and the “CTL lines that killed HLA-A2 transfected K562 but not non-transfected K562” value [14] was “one of 4”.
